{"source": "patent US10894775B2", "about": "“Piperidine derivatives as liver X receptor beta agonists, compositions, and their use” (Merck Sharp & Dohme Corp., priority 2016, dated 2021)", "key": {"[1]": {"molecular_target": "T1, glutathione-S-transferase (GST) tagged LXRbeta LBD (ligand binding domain) (Homo sapiens, UniProt P55055)", "T1 construct": "purchased Invitrogen pv4658.pps", "T1 sequence (P55055 222-460 limits assumed)": "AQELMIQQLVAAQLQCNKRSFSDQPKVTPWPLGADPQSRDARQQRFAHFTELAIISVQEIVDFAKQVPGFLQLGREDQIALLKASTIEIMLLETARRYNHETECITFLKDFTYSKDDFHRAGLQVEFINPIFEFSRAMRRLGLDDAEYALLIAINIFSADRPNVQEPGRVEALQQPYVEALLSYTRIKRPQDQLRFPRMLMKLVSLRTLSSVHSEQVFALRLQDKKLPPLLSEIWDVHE", "assay": "LanthaScreen TR-FRET Liver X Receptor Coactivator Assay, LXR beta", "format": "biochemical", "settings": "for Emax: read-out: LXR beta actiivty at max dose (%); for pEC50: read-out: LXR beta IP", "method_in_brief": "(§1)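 TR-FRET coactivator recruitment read-out: compounds first received either LBD, followed by a mix of terbium-labelled anti-GST antibody and fluorescein coactivator peptide. Signal measured by time-resolved FRET once plates had incubated at room temperature.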"}, "[2]": {"molecular_target": "T2, glutathione-S-transferase (GST) tagged LXRalpha LBD (ligand binding domain) (Homo sapiens, UniProt Q13133)", "T2 construct": "purchased Invitrogen pv4655", "T2 sequence (Q13133 209-447 limits assumed)": "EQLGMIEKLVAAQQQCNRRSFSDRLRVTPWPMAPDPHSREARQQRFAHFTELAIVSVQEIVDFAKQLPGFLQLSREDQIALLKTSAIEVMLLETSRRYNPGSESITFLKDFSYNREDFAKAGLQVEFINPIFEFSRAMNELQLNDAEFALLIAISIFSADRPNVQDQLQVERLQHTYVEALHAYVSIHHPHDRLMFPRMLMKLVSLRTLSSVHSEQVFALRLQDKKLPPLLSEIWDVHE", "assay": "LanthaScreen TR-FRET Liver X Receptor Coactivator Assay, LXR alpha", "format": "biochemical", "settings": "for Emax: efficacy (Emax) in relation to reference dual agonist T0901317, read-out: LXR alpha actiivty at max dose (%); for pEC50: read-out: LXR alpha IP", "method_in_brief": "as §1"}, "[3]": {"settings": "potency (Inflection Point) of compound-induced co-activator recruitment, TR-FRET"}, "[4]": {"settings": "efficacy (Emax) in relation to reference dual agonist T0901317"}}, "note": "pEC50: −log10 of the molar value. Read-outs that look alike come from different tables or passages of the source."}
{"smiles": "CN(C)C(=O)c1ccc(NCCC2CC23CCN(C(=O)C2(c4ccccc4)CCCC2)CC3)cc1Cl", "note": "(single isomer, unassigned) [Example 8-1, (S or R)-2-chloro-N,N-dimethyl-4-(2-(6-(1-phenylcyclopentanecarbonyl)-6-azaspiro[2.5]octan-1-yl)ethylamino)benzamide]", "values": [{"measurement": "EC50", "setting": "[1]; LXR beta IP (nM), potency (Inflection Point) of compound-induced co-activator recruitment, TR-FRET", "result": 7, "unit": "nM"}, {"measurement": "Emax", "setting": "[1]", "result": 21, "unit": "%"}, {"measurement": "Emax", "setting": "[2]", "result": 0, "unit": "%"}, {"measurement": "LXR alpha IP (nM)", "setting": "[2]; [3]", "result": "No IP"}]}
{"smiles": "CN(C)C(=O)c1ccc(N(C)CCC2CC23CCN(C(=O)C(C)(C)c2ccccc2)CC3)cc1Cl", "note": "(single isomer, unassigned) [Example 9-1, (S or R)-2-chloro-N,N-dimethyl-4-(methyl(2-(6-(2-methyl-2-phenylpropanoyl)-6-azaspiro[2.5]octan-1-yl)ethyl)amino)benzamide]", "values": [{"measurement": "Emax", "setting": "[1]; [4]", "result": 80, "unit": "%"}, {"measurement": "pEC50", "setting": "[1]; [3]", "result": 7.54}, {"measurement": "Emax", "setting": "[2]", "result": 22, "unit": "%"}, {"measurement": "pEC50", "setting": "[2]; [3]", "result": 6.10}]}
{"smiles": "CN(C)C(=O)c1ccc(CCCC2CC3(CCN(C(=O)C(C)(C)c4ccccc4)CC3)C2)cc1Cl", "note": "[Example 16-3, 2-chloro-N,N-dimethyl-4-(3-(7-(2-methyl-2-phenylpropanoyl)-7-azaspiro[3.5]nonan-2-yl)propyl)benzamide]", "values": [{"measurement": "Emax", "setting": "[1]; [4]", "result": 108, "unit": "%"}, {"measurement": "pEC50", "setting": "[1]; [3]", "result": 7.25}, {"measurement": "Emax", "setting": "[2]", "result": 50, "unit": "%"}, {"measurement": "pEC50", "setting": "[2]; [3]", "result": 6.37}]}
{"smiles": "CN(C)C(=O)c1ccc(CCCCC2CCN(C(=O)C(C)(C)c3ccccc3)CC2)cc1Cl", "note": "[Example 15-4, 2-chloro-N,N-dimethyl-4-(4-(1-(2-methyl-2-phenylpropanoyl)piperidin-4-yl)butyl)benzamide]", "values": [{"measurement": "Emax", "setting": "[1]; [4]", "result": 103, "unit": "%"}, {"measurement": "pEC50", "setting": "[1]; [3]", "result": 7.49}, {"measurement": "Emax", "setting": "[2]", "result": 39, "unit": "%"}, {"measurement": "pEC50", "setting": "[2]; [3]", "result": 6.33}]}
{"smiles": "CNC(=O)c1ccc(NCCCCC2CCN(C(=O)C(O)(c3cccc(OC(C)C)c3)C(F)(F)F)CC2)cc1Cl", "note": "(single isomer, unassigned) [Example 1-10, (S or R)-2-chloro-N-methyl-4-(4-(1-(3,3,3-trifluoro-2-hydroxy-2-(3-isopropoxyphenyl)propanoyl)piperidin-4-yl)butylamino)benzamide]", "values": [{"measurement": "Emax", "setting": "[1]; [4]", "result": 68, "unit": "%"}, {"measurement": "pEC50", "setting": "[1]; [3]", "result": 7.85}, {"measurement": "Emax", "setting": "[2]", "result": 19, "unit": "%"}, {"measurement": "pEC50", "setting": "[2]; [3]", "result": 5.68}]}
